Source: patent US20240409585A1, “MACROCYCLIC IMMUNOMODULATORS” (priority 2021, published 2024)
Bridge positions count the residues as written; N and C are the ends. Square brackets hold non-standard residues; d marks the D form. Peptide text beside a SMILES is read from it. Bip = N[C@@H](Cc1ccc(-c2ccccc2)cc1)C(=O)O; Bta = N[C@@H](Cc1csc2ccccc12)C(=O)O; 3Pal = N[C@@H](Cc1cccnc1)C(=O)O; NMeA = CN[C@@H](C)C(=O)O; Dab = NCC[C@H](N)C(=O)O

These compounds were tested against T1, PE-labeled human PD-L1-Ig binding to Jurkat cell line over-expressing human PD-1 (Jurkat-PD-1) (Homo sapiens, UniProt Q15116) (assay: Jurkat-PD-1 Cell Binding High-Content Screening Assay (CBA): Method 1). Conditions: Jurkat HPDL1 PD1 IC50 (uM) (Method 1), Jurkat-hPD-1 cells, PE-labeled PD-L1-Ig 20 nM final.
T1 construct: expressed in transfected cells; host or cells: Jurkat
T1 sequence (Q15116 25-288): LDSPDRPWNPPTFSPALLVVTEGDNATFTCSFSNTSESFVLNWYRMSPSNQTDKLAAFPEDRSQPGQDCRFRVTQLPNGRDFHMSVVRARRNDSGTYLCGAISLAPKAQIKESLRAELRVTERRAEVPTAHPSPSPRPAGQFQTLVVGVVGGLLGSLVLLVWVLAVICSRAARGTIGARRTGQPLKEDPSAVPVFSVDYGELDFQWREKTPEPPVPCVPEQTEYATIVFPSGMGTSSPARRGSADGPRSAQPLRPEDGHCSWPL

Structure (SMILES)	IC50 [µM]
CC(C)C[C@@H]1NC(=O)[C@H](CCN)NC(=O)[C@@H](CC(C)C)NC(=O)[C@H](C)N(C)C(=O)[C@H](CCCNC(=N)N)NC(=O)[C@H](Cc2ccc(-c3ccccc3)cc2)NC(=O)[C@H](C(C)C)NC(=O)[C@H](Cc2c[nH]c3ccccc23)NC(=O)[C@H](CC(=O)O)NC(=O)[C@H](Cc2ccc(O)cc2)NC(=O)[C@H](CC(N)=O)NC(=O)CSC[C@@H](C(=O)N[C@@H](C)C(N)=O)NC(=O)[C@H](CO)NC(=O)[C@H](C(C)C)NC1=O [Compound 1054] ({CH2CO}-NYDWV[Bip]R[NMeA][dL][Dab]LVSCA-NH2; thioether N-14)	0.09

Same assay, conditions: Jurkat-hPD-1 cells, PE-labeled PD-L1-Ig 20 nM final; read-out: Jurkat HPDL1 PD1 IC50 (uM) (Method 1)

Structure (SMILES)	IC50 [µM]
CC(C)C[C@@H]1NC(=O)[C@H](CCCNC(=N)N)NC(=O)[C@@H](Cc2ccccc2)NC(=O)[C@H](C)N(C)C(=O)[C@H](CCCNC(=N)N)NC(=O)[C@H](Cc2ccc(-c3ccccc3)cc2)NC(=O)[C@H](C(C)C)NC(=O)[C@H](Cc2c[nH]c3ccccc23)NC(=O)[C@H](CC(=O)O)NC(=O)[C@H](Cc2ccc(O)cc2)NC(=O)[C@H](CCC(N)=O)NC(=O)CSC[C@@H](C(=O)N[C@@H](C)C(N)=O)NC(=O)[C@H](CO)NC(=O)[C@H](C(C)C)NC1=O [Compound 1043] ({CH2CO}-QYDWV[Bip]R[NMeA][dF]RLVSCA-NH2; thioether N-14)	0.17
CC(C)C[C@@H]1NC(=O)[C@H](CCCNC(=N)N)NC(=O)[C@@H](CC(C)C)NC(=O)[C@H](C)N(C)C(=O)[C@H](CCCNC(=N)N)NC(=O)[C@H](Cc2ccc(-c3ccccc3)cc2)NC(=O)[C@H](C(C)C)NC(=O)[C@H](Cc2c[nH]c3ccccc23)NC(=O)[C@H](CC(=O)O)NC(=O)[C@H](Cc2ccc(O)cc2)NC(=O)[C@H](CC(N)=O)NC(=O)CSC[C@@H](C(=O)N[C@@H](C)C(N)=O)NC(=O)[C@H]([C@@H](C)O)NC(=O)[C@H](C(C)C)NC1=O [Compound 1045] ({CH2CO}-NYDWV[Bip]R[NMeA][dL]RLVTCA-NH2; thioether N-14)	0.2
CC(C)C[C@@H]1NC(=O)[C@H](CCCNC(=N)N)NC(=O)[C@@H](CC(C)C)NC(=O)[C@H](C)N(C)C(=O)[C@H](CCCNC(=N)N)NC(=O)[C@H](Cc2ccc(-c3ccccc3)cc2)NC(=O)[C@H](C(C)C)NC(=O)[C@H](Cc2c[nH]c3ccccc23)NC(=O)[C@H](CC(=O)O)NC(=O)[C@H](Cc2ccc(O)cc2)NC(=O)[C@H](CCC(N)=O)NC(=O)CSC[C@@H](C(=O)N[C@@H](C)C(N)=O)NC(=O)[C@H]([C@@H](C)O)NC(=O)[C@H](C(C)C)NC1=O [Compound 1046] ({CH2CO}-QYDWV[Bip]R[NMeA][dL]RLVTCA-NH2; thioether N-14)	0.1
CC(C)C[C@@H]1NC(=O)CSC[C@@H](C(=O)N[C@@H](C)C(N)=O)NC(=O)[C@H]([C@@H](C)O)NC(=O)[C@H](C(C)C)NC(=O)[C@H](CC(C)C)NC(=O)[C@H](CCCNC(=N)N)NC(=O)[C@@H](CC(C)C)NC(=O)[C@H](C)N(C)C(=O)[C@H](CCCNC(=N)N)NC(=O)[C@H](Cc2ccc(-c3ccccc3)cc2)NC(=O)[C@H](C(C)C)NC(=O)[C@H](Cc2c[nH]c3ccccc23)NC(=O)[C@H](CC(=O)O)NC(=O)[C@H](Cc2ccc(O)cc2)NC1=O [Compound 1050] ({CH2CO}-LYDWV[Bip]R[NMeA][dL]RLVTCA-NH2; thioether N-14)	0.11
CC(C)C[C@@H]1NC(=O)[C@H](CCN)NC(=O)[C@@H](CC(C)C)NC(=O)[C@H](C)N(C)C(=O)[C@H](CCCNC(=N)N)NC(=O)[C@H](Cc2ccc(-c3ccccc3)cc2)NC(=O)[C@H](C(C)C)NC(=O)[C@H](Cc2c[nH]c3ccccc23)NC(=O)[C@H](CC(=O)O)NC(=O)[C@H](Cc2ccc(O)cc2)NC(=O)[C@H](Cc2cnc[nH]2)NC(=O)CSC[C@@H](C(=O)N[C@@H](C)C(N)=O)NC(=O)[C@H]([C@@H](C)O)NC(=O)[C@H](C(C)C)NC1=O [Compound 1051] ({CH2CO}-HYDWV[Bip]R[NMeA][dL][Dab]LVTCA-NH2; thioether N-14)	0.15
CC(C)C[C@@H]1NC(=O)[C@H](CCN)NC(=O)[C@@H](CC(C)C)NC(=O)[C@H](C)N(C)C(=O)[C@H](CCCNC(=N)N)NC(=O)[C@H](Cc2ccc(-c3ccccc3)cc2)NC(=O)[C@H](C(C)C)NC(=O)[C@H](Cc2c[nH]c3ccccc23)NC(=O)[C@H](CC(=O)O)NC(=O)[C@H](Cc2ccc(O)cc2)NC(=O)[C@H](Cc2cccnc2)NC(=O)CSC[C@@H](C(=O)N[C@@H](C)C(N)=O)NC(=O)[C@H]([C@@H](C)O)NC(=O)[C@H](C(C)C)NC1=O [Compound 1053] ({CH2CO}-[3Pal]YDWV[Bip]R[NMeA][dL][Dab]LVTCA-NH2; thioether N-14)	0.12
CC(C)C[C@@H]1NC(=O)[C@H](CCCNC(=N)N)NC(=O)[C@H](Cc2csc3ccccc23)NC(=O)[C@H](C)N(C)C(=O)[C@H](CCCNC(=N)N)NC(=O)[C@H](Cc2ccc(-c3ccccc3)cc2)NC(=O)[C@H](C(C)C)NC(=O)[C@H](Cc2c[nH]c3ccccc23)NC(=O)[C@H](CC(=O)O)NC(=O)[C@H](Cc2ccc(O)cc2)NC(=O)[C@H](CC(N)=O)NC(=O)CSC[C@@H](C(=O)N[C@@H](C)C(N)=O)NC(=O)[C@H](CO)NC(=O)[C@H](C(C)C)NC1=O [Compound 1055] ({CH2CO}-NYDWV[Bip]R[NMeA][Bta]RLVSCA-NH2; thioether N-14)	0.11
CC(C)C[C@@H]1NC(=O)[C@H](CCCNC(=N)N)NC(=O)[C@H](Cc2csc3ccccc23)NC(=O)[C@H](C)N(C)C(=O)[C@H](CCCNC(=N)N)NC(=O)[C@H](Cc2ccc(-c3ccccc3)cc2)NC(=O)[C@H](C(C)C)NC(=O)[C@H](Cc2c[nH]c3ccccc23)NC(=O)[C@H](CC(=O)O)NC(=O)[C@H](Cc2ccc(O)cc2)NC(=O)[C@H](CCC(N)=O)NC(=O)CSC[C@@H](C(=O)N[C@@H](C)C(N)=O)NC(=O)[C@H](CO)NC(=O)[C@H](C(C)C)NC1=O [Compound 1057] ({CH2CO}-QYDWV[Bip]R[NMeA][Bta]RLVSCA-NH2; thioether N-14)	0.18

Now from value to compound:

IC50 [µM]	Structure (SMILES)
0.07	CC(C)C[C@@H]1NC(=O)[C@H](CCCNC(=N)N)NC(=O)[C@@H](CC(C)C)NC(=O)[C@H](C)N(C)C(=O)[C@H](CCCNC(=N)N)NC(=O)[C@H](Cc2ccc(-c3ccccc3)cc2)NC(=O)[C@H](C(C)C)NC(=O)[C@H](Cc2c[nH]c3ccccc23)NC(=O)[C@H](CC(=O)O)NC(=O)[C@H](Cc2ccc(O)cc2)NC(=O)[C@H](Cc2cnc[nH]2)NC(=O)CSC[C@@H](C(=O)N[C@@H](C)C(N)=O)NC(=O)[C@H]([C@@H](C)O)NC(=O)[C@H](C(C)C)NC1=O [Compound 1047] ({CH2CO}-HYDWV[Bip]R[NMeA][dL]RLVTCA-NH2; thioether N-14)
0.06	CC(C)C[C@@H]1NC(=O)[C@H](CCCNC(=N)N)NC(=O)[C@@H](CC(C)C)NC(=O)[C@H](C)N(C)C(=O)[C@H](CCCNC(=N)N)NC(=O)[C@H](Cc2ccc(-c3ccccc3)cc2)NC(=O)[C@H](C(C)C)NC(=O)[C@H](Cc2c[nH]c3ccccc23)NC(=O)[C@H](CC(=O)O)NC(=O)[C@H](Cc2ccc(O)cc2)NC(=O)[C@H](Cc2ccccc2)NC(=O)CSC[C@@H](C(=O)N[C@@H](C)C(N)=O)NC(=O)[C@H]([C@@H](C)O)NC(=O)[C@H](C(C)C)NC1=O [Compound 1048] ({CH2CO}-FYDWV[Bip]R[NMeA][dL]RLVTCA-NH2; thioether N-14)
0.06	CC(C)C[C@@H]1NC(=O)[C@H](CCN)NC(=O)[C@@H](CC(C)C)NC(=O)[C@H](C)N(C)C(=O)[C@H](CCCNC(=N)N)NC(=O)[C@H](Cc2ccc(-c3ccccc3)cc2)NC(=O)[C@H](C(C)C)NC(=O)[C@H](Cc2c[nH]c3ccccc23)NC(=O)[C@H](CC(=O)O)NC(=O)[C@H](Cc2ccc(O)cc2)NC(=O)[C@H](CCC(N)=O)NC(=O)CSC[C@@H](C(=O)N[C@@H](C)C(N)=O)NC(=O)[C@H]([C@@H](C)O)NC(=O)[C@H](C(C)C)NC1=O [Compound 1056] ({CH2CO}-QYDWV[Bip]R[NMeA][dL][Dab]LVTCA-NH2; thioether N-14)
0.04	CC(C)C[C@@H]1NC(=O)[C@H](CCCNC(=N)N)NC(=O)[C@@H](Cc2ccccc2)NC(=O)[C@H](C)N(C)C(=O)[C@H](CCCNC(=N)N)NC(=O)[C@H](Cc2ccc(-c3ccccc3)cc2)NC(=O)[C@H](C(C)C)NC(=O)[C@H](Cc2c[nH]c3ccccc23)NC(=O)[C@H](CC(=O)O)NC(=O)[C@H](Cc2ccc(O)cc2)NC(=O)[C@H](CC(N)=O)NC(=O)CSC[C@@H](C(=O)N[C@@H](C)C(N)=O)NC(=O)[C@H](CO)NC(=O)[C@H](C(C)C)NC1=O [Compound 1042] ({CH2CO}-NYDWV[Bip]R[NMeA][dF]RLVSCA-NH2; thioether N-14)
0.04	CC(C)C[C@@H]1NC(=O)[C@H](CCCNC(=N)N)NC(=O)[C@@H](Cc2ccccc2)NC(=O)[C@H](C)N(C)C(=O)[C@H](CCCNC(=N)N)NC(=O)[C@H](Cc2ccc(-c3ccccc3)cc2)NC(=O)[C@H](C(C)C)NC(=O)[C@H](Cc2c[nH]c3ccccc23)NC(=O)[C@H](CC(=O)O)NC(=O)[C@H](Cc2ccc(O)cc2)NC(=O)[C@H](Cc2cnc[nH]2)NC(=O)CSC[C@@H](C(=O)N[C@@H](C)C(N)=O)NC(=O)[C@H](CO)NC(=O)[C@H](C(C)C)NC1=O [Compound 1044] ({CH2CO}-HYDWV[Bip]R[NMeA][dF]RLVSCA-NH2; thioether N-14)
0.04	CC(C)C[C@@H]1NC(=O)[C@H](CCN)NC(=O)[C@@H](CC(C)C)NC(=O)[C@H](C)N(C)C(=O)[C@H](CCCNC(=N)N)NC(=O)[C@H](Cc2ccc(-c3ccccc3)cc2)NC(=O)[C@H](C(C)C)NC(=O)[C@H](Cc2c[nH]c3ccccc23)NC(=O)[C@H](CC(=O)O)NC(=O)[C@H](Cc2ccc(O)cc2)NC(=O)[C@H](Cc2ccccc2)NC(=O)CSC[C@@H](C(=O)N[C@@H](C)C(N)=O)NC(=O)[C@H]([C@@H](C)O)NC(=O)[C@H](C(C)C)NC1=O [Compound 1052] ({CH2CO}-FYDWV[Bip]R[NMeA][dL][Dab]LVTCA-NH2; thioether N-14)
0.01	CC(C)C[C@@H]1NC(=O)[C@H](CCCNC(=N)N)NC(=O)[C@@H](CC(C)C)NC(=O)[C@H](C)N(C)C(=O)[C@H](CCCNC(=N)N)NC(=O)[C@H](Cc2ccc(-c3ccccc3)cc2)NC(=O)[C@H](C(C)C)NC(=O)[C@H](Cc2c[nH]c3ccccc23)NC(=O)[C@H](CC(=O)O)NC(=O)[C@H](Cc2ccc(O)cc2)NC(=O)[C@H](Cc2cccnc2)NC(=O)CSC[C@@H](C(=O)N[C@@H](C)C(N)=O)NC(=O)[C@H]([C@@H](C)O)NC(=O)[C@H](C(C)C)NC1=O [Compound 1049] ({CH2CO}-[3Pal]YDWV[Bip]R[NMeA][dL]RLVTCA-NH2; thioether N-14)
